Legend:
Assay in all cases: relative viability (nuclei count vs DMSO), 5 days (fraction); higher = more cells survive
Staurosporine + Olaparib = compound: CN[C@@H]1C[C@H]2O[C@@](C)([C@@H]1OC)n1c3ccccc3c3c4c(c5c6ccccc6n2c5c31)C(=O)NC4 [Staurosporine] + O=C(c1cc(Cc2n[nH]c(=O)c3ccccc23)ccc1F)N1CCN(C(=O)C2CC2)CC1 [Olaparib] (partner 8 µM)
Method in brief: (§1)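 Medians of duplicate plates are given as relative viability. That measure is the nuclei count in treated wells divided by the count in vehicle wells. Counts were taken on 4× images of lung cancer cell lines in 1536-well plates, 5 days after pin-tool dosing the day after seeding with one drug alone or a fixed anchor-drug dose plus five library-drug doses (not always all listed) in √10 steps.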

Sulindac + Navitoclax = compound: CC1=C(CC(=O)O)c2cc(F)ccc2/C1=C\c1ccc([S+](C)[O-])cc1 [Sulindac] + CC1(C)CCC(c2ccc(Cl)cc2)=C(CN2CCN(c3ccc(C(=O)NS(=O)(=O)c4ccc(N[C@H](CCN5CCOCC5)CSc5ccccc5)c(S(=O)(=O)C(F)(F)F)c4)cc3)CC2)C1 [Navitoclax] (partner 0.5 µM)
Method in brief: as §1

Sulindac + Alpelisib = compound: CC1=C(CC(=O)O)c2cc(F)ccc2/C1=C\c1ccc([S+](C)[O-])cc1 [Sulindac] + Cc1nc(NC(=O)N2CCC[C@H]2C(N)=O)sc1-c1ccnc(C(C)(C)C(F)(F)F)c1 [Alpelisib] (partner 2 µM)
Method in brief: as §1

[1] = compound: CN[C@@H]1C[C@H]2O[C@@](C)([C@@H]1OC)n1c3ccccc3c3c4c(c5c6ccccc6n2c5c31)C(=O)NC4 [Staurosporine] + CC(=O)Nc1cccc(-n2c(=O)n(C3CC3)c(=O)c3c(Nc4ccc(I)cc4F)n(C)c(=O)c(C)c32)c1 [Trametinib] (partner 0.02 µM)
Method in brief: as §1

| Cell Line | relative viability (Staurosporine + Olaparib; first compound 0.005 µM) | relative viability (Staurosporine + Olaparib; first compound 0.01581 µM) | relative viability (Staurosporine + Olaparib; first compound 0.05 µM) | relative viability (Staurosporine + Olaparib; first compound 0.1581 µM) | relative viability (Staurosporine + Olaparib; first compound 0.5 µM) | relative viability (Sulindac + Navitoclax; first compound 0.08 µM) | relative viability (Sulindac + Navitoclax; first compound 0.253 µM) | relative viability (Sulindac + Navitoclax; first compound 0.8 µM) | relative viability (Sulindac + Navitoclax; first compound 2.53 µM) | relative viability (Sulindac + Navitoclax; first compound 8 µM) | relative viability (Sulindac + Alpelisib; first compound 0.08 µM) | relative viability (Sulindac + Alpelisib; first compound 0.253 µM) | relative viability (Sulindac + Alpelisib; first compound 0.8 µM) | relative viability (Sulindac + Alpelisib; first compound 2.53 µM) | relative viability (Sulindac + Alpelisib; first compound 8 µM) | relative viability ([1]; first compound 0.005 µM) | relative viability ([1]; first compound 0.01581 µM) | relative viability ([1]; first compound 0.05 µM) | relative viability ([1]; first compound 0.1581 µM) | relative viability ([1]; first compound 0.5 µM) |
| --- | --- | --- | --- | --- | --- | --- | --- | --- | --- | --- | --- | --- | --- | --- | --- | --- | --- | --- | --- | --- |
| SK-LU-1 | 0.337 | 0.172 | 0.156 | 0.128 | 0.13 | 0.96 | 0.875 | 0.694 | 0.84 | 1.54 | 1.11 | 1.02 | 0.964 | 0.936 | 1.23 | 0.253 | 0.15 | 0.172 | 0.187 | 0.12 |
| SK-MES-1 | 0.299 | 0.192 | 0.158 | 0.132 | 0.156 | 1.43 | 1.3 | 1.31 | 1.27 | 1.45 | 1.06 | 1.05 | 0.601 | 0.815 | 0.982 | 0.333 | 0.281 | 0.265 | 0.211 | 0.139 |
| SW 1573 | 0.189 | 0.124 | 0.121 | 0.0899 | 0.063 | – | 1.02 | – | 1.09 | 1.2 | – | 0.706 | – | 0.793 | 0.934 | 0.137 | 0.0903 | 0.055 | 0.047 | 0.033 |
